# From patent US20170064957A1, “ACTIVE COMPOUND COMBINATIONS HAVING IN[…]” (BAYER CROPSCIENCE AKTIENGESELLSCHAFT, priority 2014, published 2017)
# How the values were obtained:
# Assay type in all cases: in vivo
# [1] = tested on: two spotted spidermite (Tetranychus urticae); test: Tetranychus urticae - spray test OP-resistant; settings: French bean leaf disks
# Description: (§1) The expected activity for a given combination of two active compounds can be calculated according to S. R. Colby, Weeds 15 (1967), 20-22 as follows: • If • X is the kill rate, expressed in % of the untreated control, when active compound A is applied at an application rate of m g/ha or at a concentration of m ppm, • Y is the kill rate, expressed in % of the untreated control, when active compound B is applied at an application rate of n g/ha or at a concentration of n ppm and • E is the kill rate, expressed in % of the untreated control, when active compounds A and B is applied at application rates of m and n g/ha or at a concentration of m and n ppm, • then
# Tetranvchus Urticae—Spray Test OP-Resistant
# (§2) To produce a suitable preparation of active compound, 1 part by weight of active compound is mixed with the stated amount of solvents and is diluted with water, containing an emulsifier concentration of 1000 ppm, to the desired concentration. To produce a suitable preparation of a spore suspension the spores are diluted with emulsifier containing water to the desired concentration. Further test concentrations are prepared by dilution with emulsifier containing water.
# French bean (Phaseolus vulgaris) leaf disks which are heavily infested with all stages of the two spotted spidermite (Tetranychus urticae), are sprayed with a preparation of the active ingredient of the desired concentration.
# After the specified period of time, mortality in % is determined. 100% means all spider mites have been killed and 0% means none of the spider mites have been killed. The mortality values determined thus are recalculated using the Colby-formula (see sheet 1).
# [2] = tested on: caterpillars of the fall army worm (Spodoptera frugiperda); test: Spodoptera frugiperda - spray test; settings: 0.1 ppm, cotton leaves
# Description: as §1
# Spodoptera frugiperda—Spray Test
# (§3) Solvent: 7 parts by weight of dimethylformamide Emulsifier: alkylaryl polyglycol ether
# (§4) To produce a suitable preparation of active compound, 1 part by weight of active compound is mixed with the stated amount of solvent and is diluted with water, containing an emulsifier concentration of 1000 ppm, to the desired concentration. Further test concentrations are prepared by dilution with emulsifier containing water. Ammonium salt and/or penetration enhancer in a dosage of 1000 ppm are added if necessary.
# Cotton leaves (Gossypium hirsutum) are treated by being sprayed with the preparation of the active compound of the desired concentration and are infested with caterpillars of the fall army worm (Spodoptera frugiperda).
# After the specified period of time mortality in % is determined. 100% means all the caterpillars have been killed and 0% means none of the caterpillars have been killed. The mortality values determined thus are recalculated using the Colby-formula (see sheet 1).
# [3] = tested on: mustard beetle larvae (Phaedon cochleariae); test: Phaedon cochleariae - spray test; settings: Chinese cabbage leaf disks
# Description: as §1
# Phaedon cochleariae—Spray Test
# as §2
# Chinese cabbage (Brassica pekinensis) leaf disks are sprayed with a preparation of the active ingredient of the desired concentration. Once dry, the leaf disks are infested with mustard beetle larvae (Phaedon cochleariae).
# After the specified period of time, mortality in % is determined. 100% means all beetle larvae have been killed and 0% means none of the beetle larvae have been killed. The mortality values determined thus are recalculated using the Colby-formula (see sheet 1).
# [4] = tested on: larvae of the cotton boll worm (Heliothis armigera); test: Heliothis armigera - spray test; settings: cotton plants
# Description: as §1
# Heliothis armigera—Spray Test
# as §3
# as §4, with “added to the desired concentration” for “added”
# Cotton plants (Gossypium hirsutum) are treated by being sprayed with the preparation of the active compound of the desired concentration and are infested with larvae of the cotton boll worm (Heliothis armigera).
# After the specified period of time, the mortality in % is determined. 100% means all caterpillars have been killed; 0% means none of the caterpillars have been killed. The mortality values determined thus are recalculated using the Colby-formula (see sheet 1).
smiles,measurement,setting,value
Cc1cc(C(F)(C(F)(F)F)C(F)(F)F)ccc1NC(=O)c1cccc(I)c1C(=O)NC(C)(C)CS(C)(=O)=O [Flubendiamide],Efficacy in % after 2d,[1]; 0.8 g ai/ha,0%
same,Efficacy in % after 6d,"[1]; 0.8 g ai/ha, 6 d",0%
same,Efficacy in % after 2d,[1]; 4 g ai/ha,0%
same,Efficacy in % after 1d,[2]; 1 d,0%
same,Efficacy in % after 2d,[2]; 2 d,0%
same,Efficacy in % after 3d,[2]; 3 d,0%
"CNC(=O)c1cc(C#N)cc(C)c1NC(=O)c1cc(Cn2nnc(C(F)(F)F)n2)nn1-c1ncccc1Cl [(II-2), 1-(3-chloropyridin-2-yl)-N-[4-cyano-2-methyl-6-(methylcarbamoyl)phenyl]-3-{[5-(trifluoromethyl)-2H-tetrazol-2-yl]methyl}-1H-pyrazole-5-carboxamide]",Efficacy in % after 6d,[3]; 0.0064 g ai/ha,0%
same,Efficacy in % after 6d,[3]; 0.032 g ai/ha,33%
Cc1cc(C(F)(C(F)(F)F)C(F)(F)F)ccc1NC(=O)c1cccc(Cl)c1C(=O)NC(C)(C)C#N [Compound of formula (II-6)],Efficacy in % after 2d,[4]; 0.1 ppm,20%
same,Efficacy in % after 2d,[4]; 0.2 ppm,50%
same,Efficacy in % after 1d,"[4]; 0.4 ppm, 1 d",30%
same,Efficacy in % after 2d,[4]; 0.4 ppm,60%
CNC(=O)c1cc(C#N)cc(C)c1NC(=O)c1cc(Br)nn1-c1ncccc1Cl [Cyantraniliprole],Efficacy in % after 6d,"[4]; 0.15 ppm, 6 d",50%
CNC(=O)c1cc(Cl)cc(C)c1NC(=O)c1cc(Br)nn1-c1ncccc1Cl [Chlorantraniliprole],Efficacy in % after 6d,[3]; 0.16 g ai/ha,0%
